In patent US20060264419A1 (priority 2003, published 2006):
Read-outs that look alike come from different tables or passages of the source.

Target: 5-HT2A receptors (Rattus norvegicus, UniProt P14842)
Assay: in-vitro affinity to 5-HT2A receptors, displacement of [3H]ketanserine (Example A1)
Format: binding
Description: The 5-HT2A receptors are exposed both to [^3H]ketanserine (a substance which is known for its affinity to the receptor) and also to the test compound. The decrease in the affinity of [^3H]ketanserine to the receptor is an indication of the affinity of the test substance to the 5-HT2A receptor.

[1] = target not given, description names affinity to 5-HT2A receptors, read-out: IC50

Sequence of 5-HT2A receptors (P14842 whole entry): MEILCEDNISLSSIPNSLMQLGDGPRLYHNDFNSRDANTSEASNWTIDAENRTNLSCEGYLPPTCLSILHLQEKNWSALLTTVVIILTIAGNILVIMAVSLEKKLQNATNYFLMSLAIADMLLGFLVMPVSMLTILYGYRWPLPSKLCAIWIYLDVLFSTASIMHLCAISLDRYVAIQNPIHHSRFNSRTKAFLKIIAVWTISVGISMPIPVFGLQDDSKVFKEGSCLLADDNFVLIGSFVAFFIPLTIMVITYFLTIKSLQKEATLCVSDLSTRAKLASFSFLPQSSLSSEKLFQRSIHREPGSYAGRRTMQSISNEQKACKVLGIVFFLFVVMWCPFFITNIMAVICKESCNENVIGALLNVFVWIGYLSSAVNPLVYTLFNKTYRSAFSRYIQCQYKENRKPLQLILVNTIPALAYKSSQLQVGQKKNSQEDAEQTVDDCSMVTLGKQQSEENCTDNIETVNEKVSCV

Row | Structure (SMILES) | IC50 [1] [nM] | IC50 (read-out: HT2A IC50) [nM]
1 | NCCc1cnn(-c2ccc(-c3ccccc3)cc2)c1-c1ccccc1F [(188), 2-[1-Biphenyl-4-yl-5-(2-fluorophenyl)-1H-pyrazol-4-yl]-ethylamine] | 1400 | –
2 | Fc1ccccc1-c1c(CCl)cnn1-c1ccc(-c2ccccc2)cc1 [(189), 1-Biphenyl-4-yl-4-chloromethyl-5-(2-fluorophenyl)-1H-pyrazole] | 1100 | –
3 | CC(C)(C)OC(=O)N1CC2C(C1)C2NCc1cnn(-c2ccc(-c3ccccc3)cc2)c1-c1ccccc1F (centres unmarked) [(190), tert-Butyl 6-{[1-biphenyl-4-yl-5-(2-fluorophenyl)-1H-pyrazol-4-ylmethyl]amino}-3-azabicyclo[3.1.0]hexane-3-carboxylate] | 520 | –
4 | O=c1ccccn1Cc1cnn(-c2ccc(-c3ccccc3)cc2)c1-c1ccccc1F [(191), 1-[1-Biphenyl-4-yl-5-(2-fluorophenyl)-1H-pyrazol-4-ylmethyl]-1H-pyridin-2-one] | 200 | –
5 | Fc1ccccc1-c1c(CNC2C3CNCC32)cnn1-c1ccc(-c2ccccc2)cc1 (centres unmarked) [(192), (3-Azabicyclo[3.1.0]hex-6-yl)-[1-biphenyl-4-yl-5-(2-fluorophenyl)-1H-pyrazol-4-ylmethyl]amine] | 320 | –
6 | O=C(c1cnn(-c2ccc(-c3ccccc3)cc2)c1-c1ccccc1F)N1CCOCC1 [(193), 1-[1-Biphenyl-4-yl-5-(2-fluorophenyl)-1H-pyrazol-4-yl]-1-morpholin-4-ylmethanone] | 360 | –
7 | Nc1ccc(NCc2cnn(-c3ccc(-c4ccc(F)cc4)nc3)c2-c2ccccc2F)cn1 [(194), N^5-{5-(2-Fluorophenyl)-1-[6-(4-fluorophenyl)pyridin-3-yl]-1H-pyrazol-4-ylmethyl}pyridine-2,5-diamine] | 590 | –
8 | Fc1ccccc1-c1c(CN2CCC(Cc3cccnc3)CC2)cnn1-c1ccc(-c2ccccc2)cc1 [(195), 3-{1-[1-Biphenyl-4-yl-5-(2-fluorophenyl)-1H-pyrazol-4-ylmethyl]piperidin-4-ylmethyl}pyridine] | 66 | –
9 | Fc1ccc(-c2ccc(-n3ncc(CNc4cnccn4)c3-c3ccccc3F)cn2)cc1 [(196), {5-(2-Fluorophenyl)-1-[6-(4-fluorophenyl)pyridin-3-yl]-1H-pyrazol-4-ylmethyl}pyrazin-2-ylamine] | 1200 | –
10 | Nc1ncc(NCc2cnn(-c3ccc(-c4ccc(F)cc4)nc3)c2-c2ccccc2F)cn1 [(197)] | 1300 | –
11 | CN1CCN(Cc2cnn(-c3ccc(-c4ccccc4)nc3)c2-c2cccnc2)CC1 [(198), 1-Methyl-4-[1-(6-phenylpyridin-3-yl)-5-pyridin-3-yl-1H-pyrazol-4-ylmethyl]piperazine] | 140 | –
12 | Fc1ccccc1-c1c(C=CCN2CCOCC2)cnn1-c1ccc(-c2ccccc2)cc1 [Example 908, 4-{3-[1-Biphenyl-4-yl-5-(2-fluorophenyl)-1H-pyrazol-4-yl]allyl}morpholine] | – | 17
13 | CN1CCN(Cc2cnn(-c3ccc(-c4ccc(F)cc4)cc3)c2-c2cccc(F)c2)CC1 [Example 911, 1-[1-(4′-Fluorobiphenyl-4-yl)-5-(3-fluoro-phenyl)-1H-pyrazol-4-ylmethyl]-4-methyl-piperazine] | – | 19
14 | Fc1ccccc1-c1c(CCCN2CCOCC2)cnn1-c1ccc(-c2ccccc2)cc1 [Example 917, 4-{3-[1-Biphenyl-4-yl-5-(2-fluoro-phenyl)-1H-pyrazol-4-yl]propyl}morpholine] | – | 23
15 | CN(C)C1CCN(Cc2cnn(-c3ccc(-c4ccccc4)cc3)c2-c2ccccc2F)C1 (centres unmarked) [Example 936, {1-[1-Biphenyl-4-yl-5-(2-fluoro-phenyl)-1H-pyrazol-4-ylmethyl]pyrrolidin-3-yl}dimethyl-amine] | – | 35
16 | CCN1CCN(Cc2cnn(-c3ccc(-c4ccc(F)cc4)cc3)c2-c2cccc(OC)c2)CC1 [Example 938, 1-Ethyl-4-[1-(4′-fluorobiphenyl-4-yl)-5-(3-methoxyphenyl)-1H-pyrazol-4-ylmethyl]-piperazine] | – | 35
17 | Fc1ccccc1-c1c(CN2CC=CC2)cnn1-c1ccc(-c2ccccc2)cc1 [Example 939, 1-Biphenyl-4-yl-4-(2,5-dihydropyrrol-1-yl-methyl)-5-(2-fluorophenyl)-1H-pyrazole] | – | 36
18 | Cc1cccc(-c2c(CN3CCN(C)CC3)cnn2-c2ccc(-c3ccc(F)cc3)cc2)c1 [Example 940, 1-[1-(4′-Fluorobiphenyl-4-yl)-5-m-tolyl-1H-pyrazol-4-ylmethyl]-4-methylpiperazine] | – | 37
19 | Fc1ccccc1-c1c(CN2CCCCCC2)cnn1-c1ccc(-c2ccccc2)cc1 [Example 948, 1-[1-Biphenyl-4-yl-5-(2-fluorophenyl)-1H-pyrazol-4-ylmethyl]azepan] | – | 48
20 | Fc1ccc(CCN2CCN(Cc3cnn(-c4ccccn4)c3-c3ccccc3F)CC2)cc1 [Example 950, 1-[2-(4-Fluorophenyl)ethyl]-4-[5-(2-fluoro-phenyl)-1-pyridin-2-yl-1H-pyrazol-4-ylmethyl]-piperazine] | – | 53
21 | COc1ccc(-c2c(CN3CCN(CCN4CCCC4)CC3)cnn2-c2ccc(-c3ccc(F)cc3)cc2)cc1 [Example 954, 1-[1-(4′-Fluorobiphenyl-4-yl)-5-(4-methoxy-phenyl)-1H-pyrazol-4-ylmethyl]-4-(2-pyrroli-din-1-ylethyl)piperazine] | – | 56
22 | CN1CCN(Cc2cnn(-c3ccc(-c4ccc(F)cc4F)cc3)c2-c2ccccc2F)CC1 [Example 955, 1-[1-(2′,4′-Difluorobiphenyl-4-yl)-5-(2-fluoro-phenyl)-1H-pyrazol-4-ylmethyl]-4-methyl-piperazine] | – | 56
23 | CCc1ccc(-c2ccc(-n3ncc(CN4CCN(C)CC4)c3-c3ccccc3F)cc2)cc1 [Example 956, 1-[1-(4′-Ethylbiphenyl-4-yl)-5-(2-fluorophenyl)-1H-pyrazol-4-ylmethyl]-4-methylpiperazine] | – | 57
24 | CCOC(=O)N1CCN(Cc2cnn(-c3ccc(-c4ccccc4)cc3)c2-c2ccccc2F)CC1 [Example 957, Ethyl 4-[1-biphenyl-4-yl-5-(2-fluoro-phenyl)-1H-pyrazol-4-ylmethyl]piperazine-1-carboxylate] | – | 58
25 | Cc1ccc(-c2ccc(-n3ncc(CN4CCN(C)CC4)c3-c3ccccc3F)cc2)c(F)c1F [Example 959, 1-[1-(2′,3′-Difluoro-4′-methylbiphenyl-4-yl)-5-(2-fluorophenyl)-1H-pyrazol-4-ylmethyl]-4-methylpiperazine] | – | 60
26 | Fc1ccccc1-c1c(CN2CCC(Cc3cccnc3)CC2)cnn1-c1ccc(-c2ccccc2)cc1 [Example 962, 3-{1-[1-Biphenyl-4-yl-5-(2-fluoro-phenyl)-1H-pyrazol-4-ylmethyl}piperidin-4-ylmethyl]pyridine] | – | 66
27 | CN1CCN(Cc2cnn(-c3ccc(-c4cccc(Cl)c4)cc3)c2-c2ccccc2F)CC1 [Example 963, 1-[1-(3′-Chlorobiphenyl-4-yl)-5-(2-fluoro-phenyl)-1H-pyrazol-4-ylmethyl]-4-methyl-piperazine] | – | 69
28 | Cc1ccccc1-c1c(CN2CCN(C)CC2)cnn1-c1ccc(-c2ccc(F)cc2)cc1 [Example 966, 1-[1-(4′-Fluorobiphenyl-4-yl)-5-o-tolyl-1H-pyrazol-4-ylmethyl]-4-methyl-piperazine] | – | 72
29 | CN1CCN(Cc2cnn(-c3ccc(-c4cccc(F)c4F)cc3)c2-c2ccccc2F)CC1 [Example 967, 1-[1-(2′,3′-Difluorobiphenyl-4-yl)-5-(2-fluoro-phenyl)-1H-pyrazol-4-ylmethyl]-4-methyl-piperazine] | – | 73
